Test results taken from patent publication EP2338876A1, “Tamsulosin adipate for pharmaceutical use” (LEK Pharmaceuticals d.d., priority 2009, dated 2011).

How the values were obtained:
Type in all cases: physicochemical
[1] = Solid-state stability at ambient and at low relative humidity
Protocol: Tamsulosin adipate dihydrate from Example 9 (1.0 g), is stayed in an open dish in an airtight chamber at temperature of 25 °C and relative humidity of below 10 % (achieved by means of dry desiccant) for 3 days.

[2] = Solid-state stability at higher temperature
Protocol: Tamsulosin adipate dihydrate from Example 9 (1.0 g), is heated at 80 °C for 24 h to give a glassy solid which is crushed and homogenised.

[3] = Solubility in water, relative between solid forms; conditions: 60-100 ml of water per gram of the salt, room temperature; compared with anhydrous or amorphous tamsulosin adipate
Protocol: In another embodiment of the invention tamsulosin adipate dihydrate can be prepared also from water solutions from more soluble forms of tamsulosin adipate (anhydrous or amorphous). Depending on kinetic factors two polymorphs of tamsulosin adipate dihydrate can be obtained. In another embodiment tamsulosin adipate (anhydrous or amorphous) is dissolved in a small amount of water, preferably in 60-100 ml of water per gram of the salt, most preferably in 80-90 ml per gram, preferably at room temperature. Less soluble dihydrate spontaneously precipitates from the solution, yielding tamsulosin adipate dihydrate, characterized by the peaks at about 2θ= 10.2, 10.5, 13.5, 15.5, 16.3, 21.1, 21.9° 24.3, 25.2, 28.3 and 35.9° particularly characteristic peaks are 15.5, 21.9°, 28.3, and 35.9°.

[4] = Solubility in lower alcohols compared with tamsulosin hydrochloride; conditions: compared with commercially available tamsulosin hydrochloride
Excerpt: The adipate forms of tamsulosin prepared according to the present invention have favourable solubility properties. […] This property could be an indicator for better interactions with less polar surfaces (e.g. lipid barriers) and allows more homogeneous preparation of pharmaceutical preparations in which tamsulosin should be homogenously mixed with lipophilic excipients (such as in preparation of transdermal dosage forms). The adipate anion has been shown physiologically acceptable. The tamsulosin adipate has therefore appropriate properties for smooth interaction with hydrophilic and lipophilic surfaces.

Row | stability in extremely dry conditions ([1]; below 20 % relative humidity, preferably below 10 %) | stability under normal ambient conditions ([1]; normal ambient conditions) | solid form after storage at low humidity (XRPD) ([1]; open dish, airtight chamber, 25 °C, relative humidity below 10 %, 3 days) | stability at higher temperatures ([2]; preferably above 70 °C, most preferably above 80 °C) | solubility in water relative to other forms [3] | SMILES | solid form after heating (XRPD) ([2]; 80 °C for 24 h) | solubility in lower alcohols [4]
1 | loses water | stable | amorphous material | loses water | Less soluble | CCOc1ccccc1OCCN[C@H](C)Cc1ccc(OC)c(S(N)(=O)=O)c1 [Tamsulosin adipate dihydrate, tamsulosin adipate dihydrate form A] | amorphous material with traces of anhydrous crystalline form | 
2 |  |  |  |  |  | CCOc1ccccc1OCCN[C@H](C)Cc1ccc(OC)c(S(N)(=O)=O)c1 [Tamsulosin adipate, tamsulosin adipate] |  | more soluble in lower alcohols, than the commercially available tamsulosin hydrochloride
